{
  "source": "patent US20100048545A1",
  "about": "“Compounds and Compositions for Use in the Prevention and Treatment of Disorders of Fat Metabolism and Obesity” (INNODIA INC., priority 2006, published 2010)",
  "key": {"Agouti mice": {"test_system": "Agouti mice", "test": "Weight gain and food consumption in Agouti mice, 21 days", "format": "in vivo", "conditions": "50 or 100 mg/kg orally twice daily", "method": "Agouti mice, which are obese, diabetic and leptin resistant, were treated orally twice daily with 50 or 100 mg/kg of 4-[…] for 21 consecutive days. Body weight and food consumption were measured daily."}, "AMPK-ACC": {"test_system": "AMPK-ACC", "test": "Phosphorylation level of AMPK-ACC in the hypothalamus of HFHS fed rats (Western blot, anti-pACC)", "format": "in vivo", "conditions": "100 mg/kg BID for 2 days, overnight fasted, dosed one hour before terminal procedure, vs control", "from_the_text": "The AMPK pathway is known to regulate food intake in the hypothalamus. In low energy state as in a food deprivation situation, AMPK phosphorylates and in this way inactivates acetyl CoA carboxylase (ACC). Phosphorylation of ACC thus reduces its ability to catalyse the production of malonyl-CoA which is thought to be implicated in the […] of food consumption (.Hu, Z., Dai, Y., Prentki, M., Chohnan, S, and Lane, D. (2005) J. Biol. Chem. 280: 39681-39683).\nTo investigate whether 4-OH can alter activity of the AMPK/ACC in the hypothalamus, rats were treated BID with 100 mg/kg of 4-OH or water (control group) for 2 days. Each group was composed of four animals. All rats (controls and 4-OH treated) were fasted overnight before experimentation. On day 29, rats from each respective group were treated one hour before the terminal procedure with their appropriate solution (water for control and 4-OH for chronically 4-OH treated rats). After decapitation, the hypothalamus were isolated and snap frozen in liquid nitrogen. The hypothalamus was then powdered with liquid nitrogen and then solubilized in lysis buffer. Western blot was performed on the hypothalamus extract after resolution of proteins onto a 7.5% polyacrylamide SDS gel and transfer onto a nitrocellulose membrane. […]"}, "dietary obese rat model": {"test_system": "dietary obese rat model", "test": "Energy balance (VO2, respiratory quotient) in dietary obese rat model, prevention and reversal studies", "format": "in vivo, male Wistar rats", "method": "The effect of 4-OH on energy balance was assessed in the dietary obese rat model. In these studies, male Wistar rats were administered a high fat/high sucrose diet (65.4% fat) and treated chronically with 4-OH. Each study consisted of 4 groups of animals. The groups studied were normal chow fed rats, rats fed a high fat/high sucrose diet and rats fed a high fat high sucrose diet and orally administered 4-OH at 100 mg/kg twice per day. These three groups had access to food ad libitum throughout the study. A fourth group fed the same number of Kcal (or similar energy intake) as the 4-OH group was also included to investigate drug effects that may occur in addition to changes in food intake. Two studies were performed: one to determine whether 4-OH could prevent the development of obesity (prevention study) and the other to determine whether 4-OH could reverse established obesity (reversal study). In the prevention study, male Wistar rats were administered the high fat/high sucrose diet for 5 weeks. During the first week of diet administration, the rats were adapted to receiving increasing doses of 4-OH. In the reversal of obesity study, the animals were first made obese by feeding the high fat/high sucrose diet for 28 days. This feeding regime continued for the duration of the study. After the period of obesity induction, the rats were also adapted to receiving increasing doses of 4-OH during a one week period. After the adaptation period, 4-OH was orally administered at a dose of 100 mg/kg twice per day for the following 4 week period in both treatment protocols. The ability of 4-OH to influence energy expenditure was determined by indirect calorimetry. On the 21st day of both the prevention and reversal studies, rats were placed into metabolic cages and energy expenditure was assessed by determining oxygen consumption. The effect of 4-OH on oxygen consumption during the day/night cycle on Day 21 of both the prevention and reversal of obesity studies is shown in FIGS. 27A and 27B. The respiratory quotient (RQ) was calculated in these studies from both the quantity of oxygen consumed and the quantity of carbon dioxide produced while the animals were present in the metabolic chambers. A RQ of 1 is indicative that the animals are burning pure carbohydrate as the energy source."}, "obese mice": {"test_system": "obese mice", "test": "Compound 22 and 4-hydroxyisoleucine on weight gain of obese mice, 21 days", "format": "in vivo, C57BL/6 mice", "conditions": "p<0.01", "method": "The objective of the following study was to evaluate the effect of the lactone form of 4-hydroxyisoleucine (compound 22) on the weight gain of obese mice. 40 C57BL/6 mice were fed a high fat diet (60% of calories from fat) for 6 weeks in order to induce obesity. Animals were than randomized to 5 study groups of 8 mice each according to their body weight values. Thereafter, the animals were treated orally twice daily with either the water vehicle, 50 mg/kg of compound 22, 100 mg/kg of compound 22, 50 mg/kg of 4-hydroxyisoleucine or 100 mg/kg of 4-hydroxyisoleucine. The treatment lasted 21 days and body weight of mice were determined daily from day 1 to day 21 of the study."}, "[1]": {"test_system": "Wistar rat model of diet-induced obesity", "test": "Food consumption, weight gain and plasma triglycerides in Wistar rat model of diet-induced obesity, 28 days", "format": "in vivo, Wistar rats", "conditions": "for triglycerides plasma levels: 28 days", "from_the_text": "A total of 60 animals were used in the study. The animals were distributed into 6 groups; 1 group was fed standard chow, 1 group was fed a high fat, high sucrose (HFHS) diet with 28 days treatment, 1 untreated control group was fed a HFHS diet, and 1 untreated group was fed a HFHS diet, but with caloric intake restricted to match the caloric intake of the 4-OH treated animals (pair-fed animals). A fifth group was fed a high fat, high sucrose (HFHS) diet with 28 days treatment and received an acute oral administration of 4-OH just prior to experimentation on Day 29 of the study, and a sixth group was fed a HFHS diet, but with caloric intake restricted to match the caloric intake of the 4-OH treated animals receiving an acute oral administration of 4-OH on Day 29 of the study (pair-fed animals). Each group was composed of 10 animals. […] Body weights were measured once weekly from week 1 to week 4 of the study. For the four weeks of treatment, the test article 4-OH was dissolved in reverse osmosis water. 4-OH aliquoted and kept at 4° C. […] Untreated animals received water twice daily."}, "FatB1": {"test_system": "FatB1", "test": "RT-PCR gene expression in adipocytes of treated rats: FatB1", "format": "in vivo", "conditions": "data not shown", "method": "As the ex vivo studies on adipocytes indicated the lipolytic effect of drug was due to chronic exposure (see previous example), a role in gene regulation was assessed. RT-PCR was used to assess the expression of genes in the adipocytes from treated and control animals."}},
  "data": [
    {"smiles": "C[C@@H]([C@H](C)O)[C@H](N)C(=O)O", "note": "[Compound 14a, (2S,3R,4S)-4-Hydroxyisoleucine]", "values": [
      {"measurement": "food intake", "setting": "Agouti mice", "result": "little effect on food intake"},
      {"measurement": "body weight gain", "setting": "Agouti mice; vs vehicle", "result": "significant decrease of body weight gain"},
      {"measurement": "level of phosphorylated ACC in hypothalamus", "setting": "AMPK-ACC", "result": "even more reduced"},
      {"measurement": "respiratory quotient, night phase", "setting": "dietary obese rat model; 100 mg/kg twice per day", "result": "not reduced"},
      {"measurement": "oxygen consumption per kg of body weight, night phase", "setting": "dietary obese rat model; 100 mg/kg twice per day, Day 21", "result": "significantly enhanced relative to both the pair fed and control groups of animals"},
      {"measurement": "oxygen consumption (VO2), light phase", "setting": "dietary obese rat model; 100 mg/kg twice per day, Day 21, prevention and reversal studies", "result": "essentially identical"},
      {"measurement": "respiratory quotient (fuel source), day phase", "setting": "dietary obese rat model; 100 mg/kg twice per day, vs pair fed animals", "result": "burn proportionally more fat than pair fed animals"},
      {"measurement": "VO2 expressed per rat", "setting": "dietary obese rat model; 100 mg/kg twice per day, vs pair fed control groups", "result": "greater"},
      {"measurement": "respiratory quotient (fuel source), day phase", "setting": "dietary obese rat model; reversal study, vs pair fed and vehicle treated animals", "result": "proportionally more fat than both the pair fed and vehicle treated animals"},
      {"measurement": "body weight", "setting": "obese mice; 100 mg/kg orally twice daily, 21 days, vs water control", "result": "significant reduction of body weight compared to the water control group"},
      {"measurement": "white fat mass (epididymal fat)", "setting": "obese mice; 100 mg/kg, end of treatment", "result": "loss of the white fat mass (epididymal fat)"},
      {"measurement": "triglycerides plasma levels", "setting": "[1]; 100 mg/kg twice daily, p<0.05", "result": "lower triglycerides plasma levels"},
      {"measurement": "triglycerides plasma levels", "setting": "[1]; 100 mg/kg twice daily, p<0.05, listed as 4-OH", "result": "significantly decreased compared to the respective pair fed groups"},
      {"measurement": "food consumption", "setting": "[1]; 100 mg/kg twice daily, first week, vs HFHS control", "result": "slightly decreased"},
      {"measurement": "weight gain after 28 days of treatment", "setting": "[1]; 100 mg/kg twice daily, p<0.05", "result": "significantly decreased compared to the pair fed group and the HFHS control group"},
      {"measurement": "weight gain after 28 days of treatment", "setting": "[1]; chronic 4-OH plus an acute oral administration on Day 29, p<0.05", "result": "significantly decreased compared to the respective pair-fed group and the HFHS control group"},
      {"measurement": "expression of FatB1", "setting": "FatB1", "result": "Upregulation"}
    ]}
  ]
}
